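Where inhibition never reached the appropriate level, the endpoint shown equals the highest concentration tested. Otherwise, values were interpolated linearly from a five-concentration, 48-hour dose response in 96-well plates. At the GI50, growth is halved. Definition used: TGI = concentration required for complete inhibition of growth.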
Key:
Assay in all cases: DTP human tumour cell line panel, 48 h
[1] = test system: NCI-H23 lung
[2] = test system: NCI-H460 lung
[3] = test system: NCI-H522 lung
[4] = test system: NCI/ADR-RES ovarian
[5] = test system: OVCAR-4 ovarian
[6] = test system: OVCAR-5 ovarian
[7] = test system: OVCAR-8 ovarian
[8] = test system: PC-3 prostate
[9] = test system: RPMI-8226 leukemia
[10] = test system: RXF 393 renal
[11] = test system: SF-268 CNS
[12] = test system: SF-295 CNS
[13] = test system: SF-539 CNS
[14] = test system: SK-MEL-2 melanoma
[15] = test system: SK-MEL-28 melanoma
[16] = test system: SK-MEL-5 melanoma
[17] = test system: SK-OV-3 ovarian
[18] = test system: SN12C renal
[19] = test system: SNB-19 CNS
[20] = test system: SNB-75 CNS
[21] = test system: SR leukemia
[22] = test system: SW-620 colon
[23] = test system: T-47D breast
[24] = test system: TK-10 renal
[25] = test system: U251 CNS
[26] = test system: UACC-257 melanoma
[27] = test system: UACC-62 melanoma
[28] = test system: UO-31 renal

SMILES: Cc1[nH]c2ccccc2c1CCNCc1ccc(/C=C/C(=O)NO)cc1
- TGI [1]: 150 nM
- GI50 [2]: < 10 nM
- TGI [2]: 838 nM
- GI50 [3]: < 10 nM
- TGI [3]: 32.4 nM
- GI50 [4]: 21.1 nM
- TGI [4]: 267 nM
- GI50 [5]: 15 nM
- TGI [5]: 58.5 nM
- GI50 [6]: < 10 nM
- TGI [6]: 91.1 nM
- GI50 [7]: < 10 nM
- TGI [7]: 178 nM
- GI50 [8]: < 11.4 nM
- TGI [8]: 2860 nM
- GI50 [9]: < 12.3 nM
- TGI [9]: 595 nM
- GI50 [10]: < 10.4 nM
- TGI [10]: 25 nM
- GI50 [11]: 15.7 nM
- TGI [11]: 60.5 nM
- GI50 [12]: 14.6 nM
- TGI [12]: 56.3 nM
- GI50 [13]: 24.9 nM
- TGI [13]: 2110 nM
- GI50 [14]: < 12 nM
- TGI [14]: 53.2 nM
- GI50 [15]: < 11.5 nM
- TGI [15]: 72.8 nM
- GI50 [16]: < 11.3 nM
- TGI [16]: 27.5 nM
- GI50 [17]: 13.4 nM
- TGI [17]: 41.2 nM
- GI50 [18]: 27.2 nM
- TGI [18]: 317 nM
- GI50 [19]: 24.4 nM
- TGI [19]: 323 nM
- GI50 [20]: < 14.7 nM
- TGI [20]: 2800 nM
- GI50 [21]: < 10 nM
- GI50 [22]: < 10 nM
- TGI [22]: 21.9 nM
- GI50 [23]: < 10 nM
- TGI [23]: 34.4 nM
- GI50 [24]: < 11.1 nM
- TGI [24]: 45.3 nM
- GI50 [25]: < 10.8 nM
- TGI [25]: 33.3 nM
- GI50 [26]: < 10 nM
- TGI [26]: 44.7 nM
- GI50 [27]: < 10 nM
- TGI [27]: 22.9 nM
- GI50 [28]: 12.9 nM
- TGI [28]: 63.7 nM
